“Also recorded” adds a separate entry of the source.
Key:
Format in all cases: in vivo, C57Bl/6 (B6) mice
[1] = test system: experimental MMP mouse model (anti-mLAMα3 IgG induced); test: Conjunctival lesions by lesional histopathology (H&E) of palpebral conjunctiva in antibody transfer-induced experimental MMP; conditions: for overall therapeutic effect in diseased mice: administered topically twice a day, days 12 and 28; for subepithelial inflammatory infiltrate, semi-quantification of H&E stained palpebral conjunctival biopsies / palpebral conjunctival split formation (conjunctiva score): vs vehicle; for palpebral conjunctival split formation (conjunctiva score): score 0-4
From the text: (§1) Adult C57Bl/6 (B6) mice (male and female) aged at least 6 weeks old were used. Animals were maintained on a 12-h light-dark cycle at the animal facility of the University of Lübeck. Mice were held under SPF conditions and fed acidified drinking water and standard chow ad libitum. Protocols were approved by the Animal Rights Commission of the Ministry of Agriculture and Environment, Schleswig-Holstein.
For production of anti-mLAMα3 IgG, New Zealand White rabbits were immunized subcutaneously with […] of an equimolar mixture of the 2 purified recombinant proteins (aa1656-1985 and aa2756-3330 of murine Laminin alpha3 chain, produced in E. coli as disclosed by Heppe, E. N., et al., J Invest Dermatol, 2017, 137, 1709-1718) suspended in complete Freund's adjuvant. The animals were boosted twice with the same protein preparation in incomplete Freund's adjuvant. Immune sera were obtained at regular intervals and characterized by IF microscopy on cryosections of murine skin. IgG from rabbits immunized with recombinant fragments of murine mLAMα3 and from non-immunized rabbits was purified by affinity chromatography using protein G sepharose affinity chromatography (Amersham Biosciences, Heidelberg, Germany). Reactivity of IgG fractions was analyzed by IF microscopy on murine skin (Sitaru et al., J Immunol 2006, 177: 3461-8). In addition, each batch of anti-mLAMα3 IgG was characterized in vivo regarding its capability to induce experimental MMP in C57Bl/6 (B6) mice (WP1.1). From this experiment, the amount of antibodies that leads to moderate experimental MMP was determined; i.e. the amount needed to induce disease development with moderate involvement of the conjunctiva (i.e. score of 1-3 in a maximum of 50% of the animals on day 12) in the model of antibody transfer-induced MMP. For this purpose, the intensity of the separation of the conjunctiva is determined histologically. The body surface area affected should be between 3-8% at the concentration used. The conjunctiva score was set histologically post-mortem and was in a range of 0-4, depending on the intensity of the separation of the conjunctiva. The amount needed was determined to be 5 mg/injection of anti-mLAMα3 IgG.
To test DF2156A at 0.5% and reparixin at 0.5% effects on the severity of conjunctival involvement in experimental MMP, the disease was induced by repetitive subcutaneous (s.c.) injections of anti-mLAMα3 IgG (5 mg/mouse) on alternating days (0, 2, ( . . . ) and 10) into adult B6 mice, which were treated throughout the entire experiment twice a day via eyedrops. Three eyedrops per eye were given twice daily. Mice treated with solvent via eyedrops or methylprednisolone (MP) via i.p. injections were used as treatment controls. Mice s.c. injected with IgG isolated from normal rabbit serum (NR IgG) served as negative control.
The primary endpoint of this experiment was the extent of conjunctival lesions as determined by lesional histopathology (H&E stain) on day 12 and 28 following an established scoring system (Heppe, E. N., et al., J Invest Dermatol, 2017, 137, 1709-1718). In detail, biopsies from the palpebral conjunctiva were taken on day 12 and day 28 and paraffine embedded. 4.5 μm thick sections from 3 different depths of the biopsies were cut in triplicate and H&E stained for further quantification. Among the H&E stained histologies those with a palpebral conjunctival-epithelium with more than 1000 μm were used for quantification. For this score the length of the split formation (split=epithelia separation from the underlying dermal structures) is measured. The split length is categorized to a score of 0-4 with no split=0, less than 100 μm=1, less than 200 μm=2, less than 300 μm=3, more or equal 300 μm=4. Splits that occurred at the end of the tissue were excluded, because they were most likely to be of artificial nature due to the cutting. The longest split out of 9 possible sections is decisive for the final score. […]

[2] = test system: experimental MMP mouse model (anti-mLAMα3 IgG induced); test: Severity of oral lesions by endoscopy (oral score) in experimental MMP; conditions: day 28; vs vehicle; DF2156A eyedrops, MP i.p.; maximum score 4
[3] = test system: experimental MMP mouse model (anti-mLAMα3 IgG induced); test: Macroscopic affected eye area in experimental MMP; conditions: DF2156A topical eyedrops, MP i.p. once daily
From the text: as §1
For production of anti-mLAMα3 IgG, New Zealand White rabbits were immunized subcutaneously with […] of an equimolar mixture of the 2 purified recombinant proteins (aa1656-1985 and aa2756-3330 of murine Laminin alpha3 chain, produced in E. coli as disclosed by Heppe, E. N., et al., J Invest Dermatol, 2017, 137, 1709-1718) suspended in complete Freund's adjuvant. […] Reactivity of IgG fractions was analyzed by IF microscopy on murine skin (Sitaru et al., J Immunol 2006, 177: 3461-8). […] From this experiment, the amount of antibodies that leads to moderate experimental MMP was determined; i.e. the amount needed to induce disease development with moderate involvement of the conjunctiva (i.e. score of 1-3 in a maximum of 50% of the animals on day 12) in the model of antibody transfer-induced MMP. For this purpose, the intensity of the separation of the conjunctiva is determined histologically. […] The amount needed was determined to be 5 mg/injection of anti-mLAMα3 IgG. […]

[4] = day 12, 0.5% eyedrops twice daily
[5] = day 28, 0.5% eyedrops twice daily
[6] = day 28, 0.5% eyedrops twice daily, listed as Reparixin

| SMILES | overall therapeutic effect in diseased mice [1] | subepithelial inflammatory infiltrate, semi-quantification of H&E stained palpebral conjunctival biopsies [1, 4] | subepithelial inflammatory infiltrate, semi-quantification of H&E stained palpebral conjunctival biopsies [1, 5] | subepithelial inflammatory infiltrate, semi-quantification of H&E stained palpebral conjunctival biopsies [1, 6] | palpebral conjunctival split formation (conjunctiva score) [1, 5] | palpebral conjunctival split formation (conjunctiva score) [1, 6] | palpebral conjunctival split formation (conjunctiva score) ([1]; day 12, DF2156A 0.5% or reparixin 0.5% eyedrops twice daily) | severity of oral lesions (oral score) [2] | extent of macroscopic affected eye area ([3]; day 12) | extent of affected eye area (AUC over 28 days) ([3]; day 28) |
| --- | --- | --- | --- | --- | --- | --- | --- | --- | --- | --- |
| CC(C)Cc1ccc([C@@H](C)C(=O)NS(C)(=O)=O)cc1 [reparixin, R-(−)-2-(4-isobutylphenyl)propionyl methansulfonamide] | overall benefit; also recorded: slower onset of the therapeutic effect | reduced | significantly decreased | reduced | significant reduction | reduced | – | – | – | – |
| C[C@@H](C(=O)NS(C)(=O)=O)c1ccc(OS(=O)(=O)C(F)(F)F)cc1 [DF2156A, R(−)-2-[(4-trifluoromethanesulfonyloxy)phenyl]-N-methanesulfonyl propionamide] | overall benefit | reduced | decreased; also recorded: improvement | – | significant reduction; also recorded: improvement | – | significant reduction; also recorded: improvement | decreased | reduction | reduction |

From patent US20260216292A1, “CXCL8 INHIBITORS FOR USE IN THE TREATMENT OF OCULAR MUCOUS MEMBRANE PEMPHIGOID AND/OR ORAL MUCOUS MEMBRANE PEMPHIGOID” (DOMPE' FARMACEUTICI SPA, priority 2023, published 2026)
